Biological target: T1, IRAK4 (Homo sapiens, UniProt Q9NWZ3)
T1 construct: purchased Carna 09-145
T1 sequence (Q9NWZ3 1-460): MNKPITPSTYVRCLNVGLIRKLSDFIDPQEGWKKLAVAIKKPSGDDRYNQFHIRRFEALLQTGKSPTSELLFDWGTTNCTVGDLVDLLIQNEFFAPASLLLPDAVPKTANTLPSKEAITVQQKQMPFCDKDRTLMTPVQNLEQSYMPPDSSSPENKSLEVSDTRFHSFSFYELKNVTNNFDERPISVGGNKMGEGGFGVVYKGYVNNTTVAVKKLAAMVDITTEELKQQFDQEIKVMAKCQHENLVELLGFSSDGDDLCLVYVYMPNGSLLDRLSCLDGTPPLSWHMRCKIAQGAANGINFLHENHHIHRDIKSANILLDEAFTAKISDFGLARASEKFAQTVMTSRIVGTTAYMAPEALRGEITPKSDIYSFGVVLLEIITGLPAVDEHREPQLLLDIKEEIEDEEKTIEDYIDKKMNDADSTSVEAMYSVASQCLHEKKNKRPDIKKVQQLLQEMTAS
Experiment: Enzymatic experiment for IRAK4 kinase inhibitor (HTRF KinEASE-STK, phosphorylation of STK1)
Type: biochemical
Conditions: 6 nM IRAK4, 0.4 uM STK1, 80 uM ATP, 37° C. for 90 min, read-out: Relative IC50
Experimental: Experimental materials: IRAK4 recombinant human […], purchased from Carna (Cat #09-145); ATP, purchased from Sigma (Cat #A7699-5G); Compound 26, purchased from Merck Millipore (Cat #531237); and HTRF KinEASE-STK Si kit, purchased from Cisbio (Cat #62ST1PEC).
Experimental method: Phosphorylation of STK1 can be detected using an HTRF assay kit. The experimental reaction was carried out in a 384-well plate (Greiner, Cat #784075) with a total reaction system of 20 uL. The reaction system mainly comprised 1× kinase buffer, […], […], 0.4 uM STK1 and 80 uM ATP. The target product prepared in Example 1 was serially diluted with DMSO at 10 concentration points, and transferred to an experimental assay plate at 100 nL. The reaction was started after 6 nM IRAK4 was added and stopped by adding a detection reagent (0.25×STK Antibody-Cryptate, 25 nM Streptavidin-XL665) after being in process at 37° C. for 90 min. After standing at room temperature for 60 min, an FRET signal was read on a Spark 10M or envision plate reader. (HTRF 665/615=signal value at 665 nm/signal value at 615 nm).
Data analysis: signal ratio (665/615) was converted to a percent rejection. Inhibition %=(max−sample)/(max−min)×100. “min” represents a ratio of signal values (665/615) for control well without enzyme, and “max” represents a ratio of signal values (665/615) for control well with […]. […] values for compounds were calculated by XLFit in the Excel. Y=Bottom+(Top−Bottom)/(1+(IC50/X)^HillSlope) Equation: […]

Structure (SMILES) | IC50
c1[nH]c2ncc3nc(C4CCC5(CC4)CNC5)cn3c2c1C1CCOCC1 | < 100 nM
c1[nH]c2ncc3nc(C4CCNCC4)cn3c2c1C1CCOCC1 | < 100 nM
NC1CCC(c2nc3c(cnc4[nH]cc(C5CCOCC5)c43)[nH]2)CC1 (centres unmarked) [drawing 312] | < 100 nM
CN1CCC(c2cn3c(cnc4[nH]cc(C5CCOCC5)c43)n2)CC1 | 100 to 1000 nM
c1[nH]c2ncc3nc(C4CCN(C5COC5)CC4)cn3c2c1C1CCOCC1 | > 1000 nM
CCN1CCC(c2cn3c(cnc4[nH]cc(C5CCOCC5)c43)n2)CC1 | 100 to 1000 nM
CN1CCC(c2cn3c(cnc4[nH]cc(C5CCOCC5)c43)n2)C1 (centres unmarked) | 100 to 1000 nM
c1[nH]c2ncc3nc(C4CCOCC4)cn3c2c1C1CCOCC1 | 100 to 1000 nM
Cn1c(C2CCCCC2)nc2c3c(C4CCOCC4)c[nH]c3ncc21 | 100 to 1000 nM
CN1CCC(c2cn3c(cnc4[nH]cc(C5CCC(C(N)=O)CC5)c43)n2)CC1 (centres unmarked) | > 1000 nM
CC1CC(c2cn3c(cnc4[nH]cc(C5CCOCC5)c43)n2)CCN1 (centres unmarked) | 100 to 1000 nM

Next, values leading:

IC50 | Structure (SMILES)
< 100 nM | NC1CCC(c2cn3c(cnc4[nH]cc(C5CCOCC5)c43)n2)CC1 (centres unmarked)
< 100 nM | CC1CNCCC1c1cn2c(cnc3[nH]cc(C4CCOCC4)c32)n1 (centres unmarked)
< 100 nM | c1[nH]c2ncc3nc(C4CCCNC4)cn3c2c1C1CCOCC1 (centres unmarked)
> 1000 nM | CC(=O)N1CCC(c2cn3c(cnc4[nH]cc(C5CCOCC5)c43)n2)CC1
100 to 1000 nM | c1[nH]c2ncc3nc(C4CCC(N5CCOCC5)CC4)cn3c2c1C1CCOCC1 (centres unmarked)
< 100 nM | CN(C)C1CCC(c2cn3c(cnc4[nH]cc(C5CCOCC5)c43)n2)CC1 (centres unmarked)
< 100 nM | c1[nH]c2ncc3nc(C4CCCCC4)cn3c2c1C1CCOCC1
100 to 1000 nM | c1[nH]c2ncc3[nH]c(C4CCCCC4)nc3c2c1C1CCOCC1
< 100 nM | NC1CCC(c2nc3c(cnc4[nH]cc(C5CCOCC5)c43)[nH]2)CC1 (centres unmarked) [drawing 311]

Source: patent US12582650B2, “IRAK4 kinase inhibitor and preparation method therefor” (ZHUHAI YUFAN BIOTECHNOLOGIES CO., LTD, priority 2019, dated 2026)
